Source: the supplement of paper PMC4862054

Experiments:
[1] = system: MDA-MB-453; settings: 72 h
In short: (§1)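 For viability, cells received 2.5 µl CellTiter-Blue for 2 h at 37 °C and fluorescence was read at 560/590 nm. Before this, breast cancer cell lines in 20 µl suspension had been incubated for 72 h on 384-well plates pre-loaded with compound dissolved in 5 µl medium. EC50 was obtained from a percent-inhibition dose-response fit censored at the highest concentration, after normalisation of each plate to vehicle and a positive kill control; rows with a zero drug sensitivity score were discarded.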

[2] = system: CAL-85-1; settings: 72 h
In short: as §1

[3] = system: DU-4475; settings: 72 h
In short: as §1

[4] = system: CAL-148; settings: 72 h
In short: as §1

[5] = system: CAL-51; settings: 72 h
In short: as §1

[6] = system: MDA-MB-453; settings: 72 h; remark: listed apart in the source
In short: (§2)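 The plates used were 384-well plates holding compound at 5 concentrations in 10-fold steps across a compound-specific 10,000-fold range, into which breast cancer cell lines were seeded in 20 µl suspension. Following 72 h incubation, CellTox Green fluorescence was read at 485/520 nm, and CellTiter-Glo luminescence was read after 10 min at room temperature. Normalisation on each plate used 0.1 % DMSO and a positive kill control. Dose-response curves gave the EC50, which was censored at the top concentration.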

[7] = system: MDA-MB-231; settings: 72 h
In short: as §2

[8] = system: CAL-85-1; settings: 72 h; remark: listed apart in the source
In short: as §2

[9] = system: Hs578T; settings: 72 h
In short: as §2

[10] = system: MFM-223; settings: 72 h
In short: as §2

[11] = system: DU-4475; settings: 72 h; remark: listed apart in the source
In short: as §2

[12] = system: BT-549; settings: 72 h
In short: as §2

[13] = system: CAL-120; settings: 72 h
In short: as §2

[14] = system: SK-BR-3; settings: 72 h
In short: as §2

[15] = system: HDQ-P1; settings: 72 h
In short: as §2

[16] = system: CAL-51; settings: 72 h; remark: listed apart in the source
In short: as §2

[17] = system: HCC1599; settings: 72 h
In short: as §2

[18] = system: MDA-MB-436; settings: 72 h
In short: as §2

[19] = system: BT-474; settings: 72 h
In short: as §2

[20] = system: HCC1937; settings: 72 h
In short: as §2

[21] = system: MDA-MB-468; settings: 72 h
In short: as §2

[22] = system: MDA-MB-231; experiment: drug sensitivity score (DSS), CellTox Green (DSS (AUC-based score)); higher = stronger drug effect (viability inhibition or cytotoxicity); extreme values may be limits of the assay; settings: incubation time: 72 h
In short: (§3)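 Normalisation on every plate relied on 0.1 % DMSO and a positive kill control. The plates, 384-well format, held compound at 5 concentrations 10-fold apart across a compound-specific 10,000-fold range, and breast cancer cell lines in 20 µl suspension were incubated on them for 72 h before CellTox Green and then CellTiter-Glo readings. The drug sensitivity score derives from the area under the fitted dose-response curve.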

[23] = system: CAL-85-1; experiment: as above; settings: incubation time: 72 h
In short: as §3

[24] = system: MFM-223; experiment: as above; settings: incubation time: 72 h
In short: as §3

[25] = system: BT-549; experiment: as above; settings: incubation time: 72 h
In short: as §3

[26] = system: MDA-MB-231; settings: 72 h; remark: listed apart in the source
In short: as §1

[27] = system: Hs578T; settings: 72 h; remark: listed apart in the source
In short: as §1

[28] = system: MFM-223; settings: 72 h; remark: listed apart in the source
In short: as §1

[29] = system: BT-549; settings: 72 h; remark: listed apart in the source
In short: as §1

[30] = system: CAL-120; settings: 72 h; remark: listed apart in the source
In short: as §1

[31] = system: SK-BR-3; settings: 72 h; remark: listed apart in the source
In short: as §1

[32] = system: HCC1599; settings: 72 h; remark: listed apart in the source
In short: as §1

[33] = system: MDA-MB-436; settings: 72 h; remark: listed apart in the source
In short: as §1

[34] = system: HCC1937; settings: 72 h; remark: listed apart in the source
In short: as §1

[35] = system: HCC1143; settings: 72 h
In short: as §1

[36] = system: MDA-MB-468; settings: 72 h; remark: listed apart in the source
In short: as §1

Row | Compound | EC50, CellTiter-Blue viability [1] [nM] | EC50, CellTiter-Blue viability [2] [nM] | EC50, CellTiter-Blue viability [3] [nM] | EC50, CellTiter-Blue viability [4] [nM] | EC50, CellTiter-Blue viability [5] [nM] | EC50, CellTiter-Glo [6] [nM] | EC50, CellTiter-Glo [7] [nM] | EC50, CellTiter-Glo [8] [nM] | EC50, CellTiter-Glo [9] [nM] | EC50, CellTiter-Glo [10] [nM] | EC50, CellTiter-Glo [11] [nM] | EC50, CellTiter-Glo [12] [nM] | EC50, CellTiter-Glo [13] [nM] | EC50, CellTiter-Glo [14] [nM] | EC50, CellTiter-Glo [15] [nM] | EC50, CellTiter-Glo [16] [nM] | EC50, CellTiter-Glo [17] [nM] | EC50, CellTiter-Glo [18] [nM] | EC50, CellTiter-Glo [19] [nM] | EC50, CellTiter-Glo [20] [nM] | EC50, CellTiter-Glo [21] [nM] | drug sensitivity score [22] | drug sensitivity score [23] | drug sensitivity score [24] | drug sensitivity score [25] | EC50, CellTiter-Blue viability [26] [nM] | EC50, CellTiter-Blue viability [27] [nM] | EC50, CellTiter-Blue viability [28] [nM] | EC50, CellTiter-Blue viability [29] [nM] | EC50, CellTiter-Blue viability [30] [nM] | EC50, CellTiter-Blue viability [31] [nM] | EC50, CellTiter-Blue viability [32] [nM] | EC50, CellTiter-Blue viability [33] [nM] | EC50, CellTiter-Blue viability [34] [nM] | EC50, CellTiter-Blue viability [35] [nM] | EC50, CellTiter-Blue viability [36] [nM]
1 | C=CCn1c(=O)c2cnc(Nc3ccc(N4CCN(C)CC4)cc3)nc2n1-c1cccc(C(C)(C)O)n1 [MK1775] | 310 | 507 | 477 | 242 | 382 | 66.3 | 172 | 294 | 275 | 250 | 1740 | 373 | 740 | 203 | 326 | 380 | 183 | 308 | 233 | 344 | 759 | 19.8 | 16.5 | 5.91 | 9.39 | 303 | 349 | 182 | 569 | 301 | 120 | 632 | 350 | 190 | 829 | 797
2 | COc1ccc(S(=O)(=O)Nc2cccnc2Nc2ccc(O)cc2)cc1 [ABT-751] | 114 | 290 | 1250 | 949 | 772 | 149 | 740 | 264 | 773 | 1010 | 1510 | 499 | 218 | 529 | 231 | 6520 | 752 | 507 | 575 | 350 | 397 | 8.51 | 12 | 4.05 | 10.2 | 376 | 218 | 2130 | 2470 | 295 | 156 | 1590 | 776 | 349 | 1780 | 748
3 | CC(=O)[C@]1(O)Cc2c(O)c3c(c(O)c2[C@@H](O[C@H]2C[C@H](N)[C@H](O)[C@H](C)O2)C1)C(=O)c1ccccc1C3=O [Idarubicin] | 396 | 240 | 23.4 | 18.7 | 7.78 | 750 | 286 | 252 | 281 | 470 | 193 | 144 | 580 | 185 | 837 | 49.1 | 466 | 134 | 404 | 665 | 152 | 0 | 8.04 | 1.56 | 0 | 79.6 | 93.8 | 263 | 91.5 | 42.2 | 24.5 | 945 | 96.8 | 5.47 | 91.5 | 53
